Values joined by “and” are separate entries in the source; they are usually repeats but may differ in a detail not shown here. Equal values may be shown once. “Also recorded” adds a separate entry of the source.
How the values were obtained:
[1] = test system: COX; details: cited from earlier work
[2] = test system: OA-NOS; assay: Nitrite release by OA-affected articular cartilage, ex vivo organ culture; type: cell-based, human
[3] = test system: iNOS; assay: Nitrite accumulation in LPS-stimulated RAW 264.7 murine macrophages (Griess method); type: cell-based; details: for further inhibition of nitrite accumulation above that observed at 3 mM: suprapharmacological
Method: Effects of NSAIDs on Nitrite Accumulation. […] The expression and activity of iNOS were monitored by estimation of the stable end-product: nitrites.
concentrations of NSAIDs for 2 h followed by addition of 100 ng/ml of LPS
After 16-18 h of incubation, the medium was used to estimate the
accumulation of nitrite by the Greiss method (Green et al., Anal Biochem.
(§1) The specific activity of iNOS was determined in cellfre
(§2) extracts at a given time period as described. The nitrite and specific
activity data are representative of mean ± SD value, as determined by
student t test, for 10 and 4 independent experiments, respectively. The p
values described are compared with LPSstimulated cells. […]

[4] = test system: iNOS; assay: Specific activity of iNOS in cell-free extracts of RAW 264.7 cells exposed to drug during LPS induction; type: cell-based, murine
Method: Assays for iNOS in Cell-Free Extracts. […] The reaction mixture for iNOS assay (in cell-free extracts) consists of Tris […] (pH 7.8); BSA 1 mg/ml; DTT 1 mM; CaCl2, 2 mM; FAD 10 μM; BH4 10 μM; L-arginine 30 μM; NADPH 1 mM. The assay mixture for cNOS consists of Tris 50 mM (pH 7.8); L-arginine 50 μM; calmodulin 10 μg/ml; BH4 10 μM; CaCl2 2 mM; NADPH 100 μM. RAW 264.7 cells were induced with LPS in the presence and absence of NSAIDs for 16-18 h. […] Cells were re-pelleted at 4° C. and resuspended in Tris buffer (10 mM, pH 7.4) containing 1 mg/ml each chymostatin, antipain, leupeptin and pepstatin, 1 mM DTT and 1 mM PMSF. Cells were lysed in a Polytron PT 1200 homogenizer (Kinematica AG, Switzerland) after 3 cycles of rapid freeze-thawing. The lysate was centrifuged at 16,000 rpm for 60 min at 4° C., and the supernatants were used as cell-free extracts. […] After 20 min the assays were terminated by heating the reaction mixture at 90° C. for 5 min. The precipitates were removed by centrifuging at 15,000 rpm for 20 min. Ten microliters (≈50,000 cpm) of the supernatant was spotted on activated Avicel TLC plates (Analtech, Newark, Del.). The TLC plates were developed in a solvent system consisting of ethanol:water:ammonia (80:16:4). Quantitation of the spot for L-[^3 3H]-citrulline was performed by a Bioscan System 200 Imaging Scanner. A phosphoimager can also be used for such quantification.
as §1, §2

[5] = test system: iNOS; assay: iNOS protein expression, Western blot, LPS-treated RAW 264.7 cells; type: cell-based, murine
Method: Western Blot Analysis. Equal amounts of protein (50 μg) estimated by BCA reagent (Pierce, Rockford, Ill.) were loaded onto SDS-PAGE gels and stained to verify the concentrations of various protein fractions by examining the intensities of the protein bands on the gels. Western blot analysis was carried out from the same cell extracts. The Western-blotted membrane was probed with a specific anti-iNOS monoclonal antibody, as specified by Transduction Laboratories (Lexington, Ky.). The blots were developed using the ECL Western blot system (Amersham, Arlington Heights, Ill.). Quantitation of the bands was performed using a densitometer from Molecular Dynamics (Sunnyville, Calif.).
The protein expression data are represented as
ND = not done. NS = not significant.
A Western blot analysis of iNOS protein was carried out in cells treated with […] LPS in the presence and absence of NSAIDs for 16-18 h.

[6] = test system: iNOS; assay: iNOS expression in stimulated rat chondrosarcomas; type: cell-based
Method: NSAIDs were tested in: (FIG. 5A) rat chondrosarcomas stimulated with LPS, and (FIG. 5B) unstimulated OA cartilage (n=3).

[7] = test system: iNOS; assay: Radiolabelling of iNOS by acetyl-labelled aspirin in RAW 264.7 cells, SDS-PAGE; type: biochemical, murine; details: radiolabelled aspirin, 30 minutes
Method: Unstimulated and LPS stimulated murine macrophage (RAW 264.7) cells were incubated with radiolabelled aspirin (acetyl group labelled) as described by Lecomte et al. (J. Biol. Chem. 269:13207-13215, 1994). After 30 minutes, the extracts were run on an SDS-PAGE gel and analyzed by phosphoimager. […] The intensity of label (^14 C) is increased, where iNOS synthesis was induced by LPS.
However, the possibility that inhibition of iNOS catalytic activity may be due to acetylation of cofactors/precursors of iNOS has not been ruled out.

[8] = test system: OA-NOS; assay: Sensitivity of OA-NOS to agents (Table 3 comparison)
[9] = test system: iNOS; assay: In vitro iNOS catalytic activity in cell-free extracts preincubated with drug (L-[3H]-arginine to L-[3H]-citrulline); type: biochemical, murine; details: 20 min preincubation
[10] = test system: NF-κB; details: cited from earlier work

CC(=O)Oc1ccccc1C(=O)O [Aspirin, aspirin]
COX inhibition [1]: an effective inhibitor of COX
cyclooxygenase and peroxidase activity of COX [1]: inactivates the cyclooxygenase and not the peroxidase activity
effect on nitrite accumulation / NOS expression in OA cartilage [2]: blocked iNOS expression in OA cartilage
rank order of inhibition of spontaneous nitrite accumulation [2]: aspirin>indomethacin>sodium salicylate
inhibition at 2000 µM ([2]; 2 mM, human osteoarthritic cartilage ex vivo, read-out: suppression of accumulation of nitrites): ≥ 50%
Nitrite released, Nitrite ([3]; 1 mM, LPS 100 ng/ml, 16-18 h): 26.6 ± 4.3 µM
Nitrite released, Nitrite ([3]; 2 mM, LPS 100 ng/ml, 16-18 h): 22.9 ± 5.3 µM
Nitrite released, Nitrite ([3]; 3 mM, LPS 100 ng/ml, 16-18 h): 20.3 ± 3.9 µM
further inhibition of nitrite accumulation above that observed at 3 mM ([3]; 5 mM): 50%
further inhibition of nitrite accumulation above that observed at 3 mM ([3]; 10 mM): 80%
inhibition at 1000 µM ([3]; Mus musculus, RAW264.7, read-out: Nitrite released, % inhibition, 1 mM, LPS 100 ng/ml, 16-18 h): 10%
inhibition at 2000 µM ([3]; Mus musculus, RAW264.7, read-out: Nitrite released, % inhibition, 2 mM, LPS-stimulated, 16-18 h): 22%
inhibition at 3000 µM ([3]; Mus musculus, RAW264.7, read-out: Nitrite released, % inhibition, 3 mM, LPS 100 ng/ml, 16-18 h): 32%
Specific activity of iNOS ([4]; 1 mM): 271.7 ± 17.2 pmol/min/mg protein
Specific activity of iNOS ([4]; 2 mM): 231.3 ± 29.8 pmol/min/mg protein
Specific activity of iNOS ([4]; 3 mM): 162.3 ± 25.9 pmol/min/mg protein
Specific activity, % inhibition ([4]; 3 mM, cell-free extracts, 16 h): 47%
inhibition at 3000 µM ([4]; Mus musculus, RAW264.7, 16 h, read-out: Specific activity, % inhibition, 3 mM, cell-free extracts, 16 h): 48%
IC50 ([4]; Mus musculus, RAW264.7, read-out: IC50, specific enzyme activity of iNOS): 3000 µM
inhibition at 1000 µM ([4]; Mus musculus, RAW264.7, read-out: Specific activity, % inhibition, 1 mM): 12%
inhibition at 2000 µM ([4]; Mus musculus, RAW264.7, read-out: Specific activity, % inhibition, 2 mM): 25%
decrease of iNOS expression ([5]; 10 mM, Western blot, 10000 µM): ~ 70%
effect on iNOS expression, Western blot ([5]; LPS, 16-18 h, indomethacin 5 μM): significant decrease in the expression of iNOS
inhibition at 10000 µM ([5]; Mus musculus, RAW264.7, read-out: decrease of iNOS expression, 10 mM, Western blot): 69%
inhibition at 3000 µM ([5]; Mus musculus, RAW264.7, read-out: inhibition of iNOS protein expression, 3 mM, approximate, densitometry): ~53%
inhibition of iNOS expression in rat chondrosarcomas ([6]; 72 h, added 1 h prior to cytokines): ~ 57%
effect on iNOS in rat chondrosarcomas ([6]; LPS/cytokine-stimulated, L-NMMA 500 μM, indomethacin 20 μM): significant inhibition of iNOS
acetylation of iNOS [7]: shows acetylation of iNOS
sensitivity of OA-NOS [8]: blocked; also recorded: shows sensitivity
inhibition of iNOS catalytic activity in cell-free extracts ([9]; 0.1 mM): 10-12%
inhibition of iNOS catalytic activity in cell-free extracts (specific activity in in vitro assay) ([9]; 1 mM): ~ 45% and 45-68%
activation of NF-κB ([10]; 5-20 mM, suprapharmacological): interfere in the activation of NF-κB
NF-κB-dependent transcription ([10]; aspirin 3 mM, sodium salicylate 5 mM, luciferase reporter): inhibit NF-κB-dependent transcription
NF-κB activation, gel shift assays ([10]; same concentrations (aspirin 3 mM; sodium salicylate 5 mM)): no significant effect on NF-κB activation

Source: patent publication US5759836A, “Osteoarthritis-associated inducable isoform of nitric oxide synthetase” (priority 1995, dated 1998)
